Tests used:
[1] = target: T1, nomacopan (EV576, OmCI protein, Coversin), Ornithodoros moubata, mature form, amino acids 19 to 168 of SEQ ID NO: 2 (SEQ ID NO: 4) (Ornithodoros moubata, UniProt Q5YD59); test: Fluorescence titration of LTB4 binding to nomacopan; conditions: 100 nM nomacopan in PBS, 20° C., excitation 280 nm, emission 340 nm
T1 sequence (Q5YD59 19-168): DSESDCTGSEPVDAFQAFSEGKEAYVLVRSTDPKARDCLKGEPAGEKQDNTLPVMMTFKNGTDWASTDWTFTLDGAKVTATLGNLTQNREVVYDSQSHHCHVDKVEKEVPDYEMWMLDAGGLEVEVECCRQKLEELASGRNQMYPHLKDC
From the text: The ability of a nomacopan-type protein to bind LTB4 may be determined by standard in vitro assays known in the art, for example by means of a competitive ELISA between nomacopan and anti-LTB4 antibody competing for binding to labelled LTB4, by isothermal titration calorimetry or by fluorescence titration. […] For example, binding activity for LTB4 (Caymen Chemicals, Ann Arbor, Mich., USA) in phosphate buffered saline (PBS) can be quantified in a spectrofluorimeter e.g. a LS 50 B spectrofluorimeter (Perkin-Elmer, Norwalk, Conn., USA). This may be carried out by may be carried out as follows:
Purified 100 nM solutions of nomacopan, in 2 mL PBS were applied in a quartz cuvette (10 mm path length; Hellma, Mühlheim, Germany) equipped with a magnetic stirrer.
Temperature was adjusted to 20° C. and, after equilibrium was reached, protein Tyr/Trp fluorescence was excited at 280 nm (slit width: 15 nm). The fluorescence emission was measured at 340 nm (slit width: 16 nm) corresponding to the emission maximum. A ligand solution of 30 μM LTB4 in PBS was added step-wise, up to a maximal volume of 20 μL (1% of the whole sample volume), and after 30 s incubation steady state fluorescence was measured. […]

[2] = target: Human BLT2 G-protein coupled receptor; conditions: ref. [13]; cited from earlier work
[3] = target: Human BLT1 G-protein coupled receptor; conditions: high affinity receptor, ref. [12]; cited from earlier work

For `CCCCC/C=C\C[C@@H](O)/C=C/C=C/C=C\[C@@H](O)CCCC(=O)O` [LTB4, Leukotriene B4], the Kd [1] is given as 0.1 to 0.3 nM, the Kd [2] is given as 23 nM and the Kd [3] is given as 0.39 to 1.5 nM.

Source: patent US20220370556A1, “Method of Treatment” (Volution Immuno Pharmaceuticals SA, priority 2019, published 2022)
